Data as given in the NIST ThermoML archive (doi:10.1016/j.jct.2005.07.006).
Numbers after ± are expanded uncertainties.

Key:
[1] = Crystal; DTA
[2] = Molar enthalpy of transition or fusion; conditions: Crystal; DSC

- Triple point temperature [1]: 405.06 ± 0.39 K
- Molar enthalpy of transition or fusion [2]: 4.73 ± 0.179 kcal/mol
Compound: N#Cc1nccnc1C#N [2,3-pyrazinedicarbonitrile]
